Laboratory results published in US20240383892A1, “PARTICLES OF IMIDAZO[4,5-b]PYRIDINE COMPOUND, PHARMACEUTICAL COMPOSITIONS, AND THEIR USE IN TREATING MEDICAL CONDITIONS” (Centrexion Therapeutics Corporation, priority 2023, published 2024).

Tests used:
Type in all cases: physicochemical
[1] = Stability comparison of crystalline forms: temperature of dehydration
From the text: Stability of crystalline 3-(3-methoxy-4-((4-methoxybenzyl)oxy)benzyl)-6-(1-methyl-1H-pyrazol-4-yl)-3H-imidazo[4,5-b]pyridin-2-amine monohydrate Form 3 was compared to crystalline 3-(3-methoxy-4-((4-methoxybenzyl)oxy)benzyl)-6-(1-methyl-1H-pyrazol-4-yl)-3H-imidazo[4,5-b]pyridin-2-amine monohydrate Form 1. The physical property analyzed was temperature of dehydration. Crystalline 3-(3-methoxy-4-((4-methoxybenzyl)oxy)benzyl)-6-(1-methyl-1H-pyrazol-4-yl)-3H-imidazo[4,5-b]pyridin-2-amine monohydrate Form 1 is that described in international patent application publication WO 2016/100677.

[2] = Dynamic vapor sorption (hygroscopicity); details: 2 cycles of increasing and decreasing relative humidity at 25° C., FIG. 3
Experimental: A dynamic vapor sorption isotherm plot of crystalline 3-(3-methoxy-4-((4-methoxybenzyl)oxy)benzyl)-6-(1-methyl-1H-pyrazol-4-yl)-3H-imidazo[4,5-b]pyridin-2-amine monohydrate Form 3 is provided in FIG. 3. The dynamic vapor sorption isotherm plot results are from the procedure where after a drying stage at 0% relative humidity, compound sample was exposed to 2 cycles of increasing and decreasing relative humidity at 25° C., with steps of 5% relative humidity, where mass of the sample was recorded throughout the experiment.

[3] = Particle size analysis, Malvern Mastersizer 2000; details: dispersant 0.2% (w/v) Igepal in RO water
Experimental: Particle size analysis was performed on the particles using a Malvern Mastersizer 2000 particle size analyzer equipped with a Hydro2000S sample dispersion unit. Instrument parameters and experimental conditions are set forth below:
A 50 mg±5 mg of sample of particles was weighed and placed in a 20 mL plastic blood dilution vial. Five drops of dispersant (0.2% (w/v) Igepal in RO water) was added to the vial and mixed to a slurry using the flat end of a spatula. Dispersant (20 mL) was then added and stirred with a spatula to begin dispersion. The sample vial was placed onto a magnetic stir plate and stirred for 5 minutes. While stirring, we withdrew an aliquot of the dispersed sample using a transfer pipet and transferred it to the Hydro2000S until an obscuration of 10-30% was obtained. The sample was allowed to recirculate for 5 minutes at 2500 RPM prior to initiating the sample measurement.

COc1ccc(COc2ccc(Cn3c(N)nc4cc(-c5cnn(C)c5)cnc43)cc2OC)cc1 [Form 1, 3-(3-methoxy-4-((4-methoxybenzyl)oxy)benzyl)-6-(1-methyl-1H-pyrazol-4-yl)-3H-imidazo[4,5-b]pyridin-2-amine monohydrate]
temperature of dehydration ([1]; under a stream of nitrogen gas): room temperature

COc1ccc(COc2ccc(Cn3c(N)nc4cc(-c5cnn(C)c5)cnc43)cc2OC)cc1 [Form 3, 3-(3-methoxy-4-((4-methoxybenzyl)oxy)benzyl)-6-(1-methyl-1H-pyrazol-4-yl)-3H-imidazo[4,5-b]pyridin-2-amine monohydrate]
hygroscopicity (dynamic vapor sorption isotherm) [2]: not hygroscopic | temperature of dehydration ([1]; heated): 130 °C

COc1ccc(COc2ccc(Cn3c(N)nc4cc(-c5cnn(C)c5)cnc43)cc2OC)cc1 [Particles Prepared in Part I, 3-(3-methoxy-4-((4-methoxybenzyl)oxy)benzyl)-6-(1-methyl-1H-pyrazol-4-yl)-3H-imidazo[4,5-b]pyridin-2-amine monohydrate]
Particle Size Parameter D10 [3]: 18.6 µm | Particle Size Parameter D50 [3]: 56.5 µm | Particle Size Parameter D90 [3]: 131 µm
